Source: article PMC10892419, “UHPLC-MS/MS Assay for Quantification of Legubicin, a Novel Doxorubicin-Based Legumain-Activated Prodrug, and Its Application to Pharmacokinetic and Tissue Distribution Studies” (Molecules, 2024)

What was measured:
[1] = Single-dose pharmacokinetic study of legubicin, i.v.; conditions: free metabolite in plasma; for AUClast / Cmax: n = 3, mean ± SD; for Tmax: n = 3, median [min, max]
Description: The pharmacokinetic parameters are outlined in Table 5. […] A power-function model was used to fit the relationship between exposure level (Cmax, AUClast, and AUCINF_obs) parameters and dose, and the power exponent (parameter β) and its 90% confidence interval were obtained (see Table S5).
The mixture was vortexed for 3 min, and then centrifuged at 22,000× g at 4 °C for 10 min. A final analysis was conducted by injecting 5 µL supernatant into a UHPLC-MS/MS system. Mouse plasma samples were treated in the same way as the rat plasma samples, except for protein precipitation, with 200 µL of 5 pmol/mL IS working solution and injection of 2 µL of supernatant for analysis.
(1) For the hydrolysis process, an aliquot of 25 µL of rat/mouse plasma was transferred into an Eppendorf tube, and then 50 µL of enzyme digestion buffer and 25 µL of legumain enzyme were placed into the tube. The mixture was vortexed for 1 min, and then incubated in a water bath for 24 h at 37 °C for enzymatic hydrolysis. (2) For the protein precipitation process, 1000 µL of IS working solution (5 pmol/mL and 50 pmol/mL for rat and mouse plasmas, respectively) was added to the enzymatic-hydrolysis solution. Then, the sample was vortexed for 3 min and centrifuged at 22,000× g for 10 min at 4 °C. Analyses were performed on the 3 µL aliquot of the solution used in the UHPLC-MS/MS system.
Twenty-four rats, inclusive of both sexes, were randomly distributed into four groups. Groups 1, 2, and 3 were single-dose groups, among which the subjects received legubicin via tail intravenous injection (a dose of 1.5, 5, or 15 mg/kg; i.e., 1.36, 4.52, or 13.6 µmol/kg). The fourth group was utilized for a multi-dose study at 5 mg/kg (once-weekly for 4 consecutive weeks). Blood samples of approximately 150 µL were taken from the jugular vein at 0 h (pre-dosing) and at 0.167 h (10 min), 0.5 h, 1 h, 2 h, 4 h, 8 h, 24 h, 48 h, and 72 h post-dosing in the single-dose groups. Samples were also obtained on days 1 and 22 for the multiple-dose group in the same way as for the single-dose groups. However, on days 8 and 15, samples were taken only before and 10 min after administration. The K2EDTA quantities containing blood samples were centrifuged (4 °C, 4000 rpm, 10 min) to collect plasma samples, which were separated into EP tubes and kept at −80 °C until further assay.
The analysis software (Version 1.5.2, AB Sciex, Vaughan, ON, Canada) was applied to data acquisition and quantification. Pharmacokinetic parameters were calculated with WinNonlin Phoenix (v6.4, Pharsight, Mountain View, CA, USA) with the noncompartmental method, and were presented as mean ± SD (%CV). The “Best fit” strategy in the WinNonlin Phoenix was used for the calculation of elimination half-life and the selection of the elimination phase. Graphs were plotted by GraphPad Software (GraphPad Prism 8.0.2; GraphPad Software, Inc., La Jolla, CA, USA).

[2] = in vivo; cited from earlier work
legumain = target: T1, legumain (Homo sapiens, UniProt Q99538); test: Stability of Leu-DOX in the legumain enzymatic system; format: in vitro ADME; conditions: plasma samples spiked with Leu-DOX, enzymatic digestion procedure (24 h, 37 °C), n = 3
T1 sequence (Q99538 18-433): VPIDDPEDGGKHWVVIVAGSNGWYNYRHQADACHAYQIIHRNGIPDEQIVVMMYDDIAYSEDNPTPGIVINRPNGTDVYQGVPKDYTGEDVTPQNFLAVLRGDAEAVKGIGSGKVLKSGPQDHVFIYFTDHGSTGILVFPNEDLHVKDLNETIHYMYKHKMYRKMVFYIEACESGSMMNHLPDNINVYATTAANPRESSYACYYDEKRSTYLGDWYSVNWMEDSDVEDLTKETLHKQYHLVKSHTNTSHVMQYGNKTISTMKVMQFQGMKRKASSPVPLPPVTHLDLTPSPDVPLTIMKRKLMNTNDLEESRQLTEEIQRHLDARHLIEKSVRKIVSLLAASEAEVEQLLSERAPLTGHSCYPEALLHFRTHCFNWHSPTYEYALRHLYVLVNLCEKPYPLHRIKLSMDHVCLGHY
Description: The specific liquid-phase conditions are shown as follows. Column: Agilent Eclipse Plus 4.6 × 250 mm, 5 µm; mobile phase A: 0.1% trifluoroacetic acid in water; mobile phase B: acetonitrile. Flow rate: 1.0 mL/min; HPLC: Waters 2695; detector: Waters 2475 detector (ex470/em600); column temperature: 30 °C; injection volume: 10 µL; run time: 30 min; needle wash solvent: 50% acetonitrile in water; gradient elution: starting 20% B, increasing from 20% to 45% B in 15 min, increasing from 45% to 80% B in 15 to 20 min, maintained for 5 min, then decreasing to 20% B in 0.1 min, and continuing until the end of 30 min. (b) Kinetics of Leu-Dox release from legubicin (black) and legubicin–albumin conjugate (blue) in the presence of legumain (n = 4). (c) Stability of Leu-Dox in this enzymatic system (n = 3).
The assessment of Leu-DOX stability in the aforementioned enzymatic systems warrants careful consideration. Consequently, plasma samples containing Leu-DOX were intentionally supplemented to assess the potential impacts of these methods on the precise determination of the enzymatic digestion of the legubicin plasma protein complex, which is utilized for determining the total Leu-DOX post-digestion. […]

[3] = female SD rats, single i.v. legubicin 5 mg/kg
[4] = female SD rats, single i.v. legubicin 15 mg/kg
[5] = male SD rats, single i.v. legubicin 5 mg/kg
[6] = male SD rats, single i.v. legubicin 15 mg/kg
[7] = female SD rats, single i.v. legubicin 1.5 mg/kg
[8] = male SD rats, single i.v. legubicin 1.5 mg/kg

Row | Structure (SMILES) | AUClast [1, 3] | Cmax [1, 3] | Tmax [1, 3] | AUClast [1, 4] | Cmax [1, 4] | Tmax [1, 4] | AUClast [1, 5] | Cmax [1, 5] | Tmax [1, 5] | AUClast [1, 6] | Cmax [1, 6] | Tmax [1, 6] | also measured
1 | COc1cccc2c1C(=O)c1c(O)c3c(c(O)c1C2=O)C[C@@](O)(C(=O)CO)C[C@@H]3O[C@H]1C[C@H](N)[C@H](O)[C@H](C)O1 [DOX, Doxorubicin] | 100 ± 5.38 pmol·h/mL | 3.11 ± 0.615 pmol/mL | 0.167 [0.167, 0.167] h | 486 ± 46.4 pmol·h/mL | 20.5 ± 5.06 pmol/mL | 0.167 [0.167, 0.167] h | 173 ± 24.3 pmol·h/mL | 6.65 ± 1.30 pmol/mL | 0.167 [0.167, 0.167] h | 789 ± 99.7 pmol·h/mL | 44.2 ± 4.65 pmol/mL | 0.167 [0.167, 0.167] h | Vz [2]: 72 L/kg; clearance (CL) [2]: approximately 2553 mL/h/kg
2 | COc1cccc2c1C(=O)c1c(O)c3c(c(O)c1C2=O)C[C@@](O)(C(=O)CO)C[C@@H]3O[C@H]1C[C@H](NC(=O)[C@@H](N)CC(C)C)[C@H](O)[C@H](C)O1 [Leu-DOX, N-L-leucyl-doxorubicin] | 52.0 ± 16.2 pmol·h/mL | 72.1 ± 16.0 pmol/mL | 0.167 [0.167, 0.167] h | 336 ± 62.5 pmol·h/mL | 373 ± 63.2 pmol/mL | 0.167 [0.167, 0.167] h | 94.3 ± 10.5 pmol·h/mL | 145 ± 23.9 pmol/mL | 0.167 [0.167, 0.167] h | 1030 ± 244 pmol·h/mL | 1100 ± 243 pmol/mL | 0.167 [0.167, 0.167] h | AUClast [1, 7]: 6.44 ± 2.02 pmol·h/mL; Cmax [1, 7]: 21.5 ± 7.78 pmol/mL; Tmax [1, 7]: 0.167 [0.167, 0.167] h; AUClast [1, 8]: 11.2 ± 2.1 pmol·h/mL; Cmax [1, 8]: 29.5 ± 2.74 pmol/mL; Tmax [1, 8]: 0.167 [0.167, 0.167] h; stability in the legumain enzymatic digestion system (legumain): remained unaltered throughout the enzymatic digestion procedure
